{"source": "the NIST ThermoML archive (doi:10.1021/je300902c)", "key": {"[1]": {"test": "molar enthalpy of vaporization or sublimation", "details": "298 K; Liquid; DSC"}, "[2]": {"test": "Molar enthalpy of transition or fusion", "details": "DSC"}}, "note": "Numbers after ± are expanded uncertainties.", "data": [{"smiles": "CCCCCCCCCCCCCCCCCCCCCC(=O)O", "note": "[docosanoic acid]", "values": [{"measurement": "molar enthalpy", "setting": "[1]", "value": "37 ± 3.59", "unit": "kcal/mol"}, {"measurement": "Molar enthalpy of transition or fusion", "setting": "[2]; Crystal 2", "value": "0.853 ± 0.148", "unit": "kcal/mol"}, {"measurement": "Molar enthalpy of transition or fusion", "setting": "[2]; Crystal", "value": "15.8 ± 0.335", "unit": "kcal/mol"}, {"measurement": "Triple point temperature", "setting": "Crystal 2, DTA", "value": "340.9 ± 0.5", "unit": "K"}, {"measurement": "Normal melting temperature", "setting": "Crystal, DSC/DTA", "value": "79.2 ± 0.4", "unit": "°C"}]}]}
